Paper PMC9182007, “Statistical Methods in the Study of Protein Binding and Its Relationship to Drug Bioavailability in Breast Milk” (Molecules, 2022)
Where two headings read alike, the source gives them in different places.

Key:
[1] = molecular target: human serum albumin (HSA) (Homo sapiens, UniProt P02768); settings: pH 7.4
[2] = HPLC on immobilized artificial membrane column (HPLCIAM); assay type: physicochemical; settings: for log k IAM: Table S5, IAM column, pH 7.4; for k IAM: Table S5, retention factor, IAM column, phosphate buffer pH 7.4/acetonitrile 80:20; for log kIAM / kIAM: Table S9, external group
[3] = NP TLC on non-impregnated control plates; assay type: physicochemical; settings: for CNP (Rf, control NP plate): Table S3, non-impregnated NP plate, acetonitrile/acetate buffer pH 7.4/methanol 60:20:20; for CNP (Rf value from the non-impregnated NP plate, control): Table S8, external group
[4] = tested on: plasma protein; settings: ref DrugBank [7], cited from earlier work
[5] = RP TLC on non-impregnated control plates; assay type: physicochemical; settings: Table S4, non-impregnated RP plate; acetonitrile/acetate buffer pH 7.4/methanol 60:20:20
[6] = molecular target: T1, bovine serum albumin (BSA) (Bos taurus, UniProt P02769); assay: NP TLC on plates impregnated with bovine serum albumin; assay type: binding
T1 construct: purchased Sigma Aldrich

[7] = Table S1, plasma protein binding given as fraction
[8] = Table S6, external group (n = 38), given as fraction

T1 sequence (P02769 25-607): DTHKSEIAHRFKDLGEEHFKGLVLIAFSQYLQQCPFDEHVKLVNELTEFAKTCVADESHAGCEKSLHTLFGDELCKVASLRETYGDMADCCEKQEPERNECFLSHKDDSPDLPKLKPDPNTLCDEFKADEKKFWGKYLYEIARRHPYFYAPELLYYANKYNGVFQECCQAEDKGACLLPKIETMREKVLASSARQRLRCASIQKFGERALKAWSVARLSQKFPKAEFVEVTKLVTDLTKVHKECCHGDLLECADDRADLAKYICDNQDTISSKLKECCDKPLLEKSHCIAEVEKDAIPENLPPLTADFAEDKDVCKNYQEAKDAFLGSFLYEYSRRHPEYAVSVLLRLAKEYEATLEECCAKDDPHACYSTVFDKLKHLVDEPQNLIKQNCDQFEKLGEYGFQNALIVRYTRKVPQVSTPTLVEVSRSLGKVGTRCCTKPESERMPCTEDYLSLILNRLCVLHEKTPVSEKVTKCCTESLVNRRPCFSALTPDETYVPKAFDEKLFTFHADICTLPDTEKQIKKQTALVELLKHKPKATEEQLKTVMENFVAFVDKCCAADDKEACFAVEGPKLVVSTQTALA
Chain of human serum albumin (HSA) (P02768 25-609): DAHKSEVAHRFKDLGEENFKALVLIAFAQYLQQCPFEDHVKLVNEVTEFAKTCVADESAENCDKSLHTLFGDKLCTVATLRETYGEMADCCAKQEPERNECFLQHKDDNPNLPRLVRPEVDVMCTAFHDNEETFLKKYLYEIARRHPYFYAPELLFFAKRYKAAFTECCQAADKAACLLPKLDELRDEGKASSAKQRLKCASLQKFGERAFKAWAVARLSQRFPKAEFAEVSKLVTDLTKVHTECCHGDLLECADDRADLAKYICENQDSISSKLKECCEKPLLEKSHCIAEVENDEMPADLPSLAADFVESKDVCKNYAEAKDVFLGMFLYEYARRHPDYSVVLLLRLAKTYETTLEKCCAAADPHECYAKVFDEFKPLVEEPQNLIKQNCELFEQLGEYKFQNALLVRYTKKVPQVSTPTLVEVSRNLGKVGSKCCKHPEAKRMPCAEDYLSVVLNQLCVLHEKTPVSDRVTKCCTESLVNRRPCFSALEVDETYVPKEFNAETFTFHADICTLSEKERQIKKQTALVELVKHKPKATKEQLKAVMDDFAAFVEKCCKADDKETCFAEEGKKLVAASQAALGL

| Molecule | log k IAM [2] | k IAM [2] | CNP (Rf, control NP plate) [3] | CRP (Rf, control RP plate) [5] | also measured |
| --- | --- | --- | --- | --- | --- |
| O=C(O)COC(=O)Cc1ccccc1Nc1c(Cl)cccc1Cl [aceclofenac] | 0.42 | 2.63 | 0.89 | – | k HSA [1]: 55.89 |
| CC(=O)CC(c1ccc([N+](=O)[O-])cc1)c1c(O)c2ccccc2oc1=O (stereo not drawn) [acenocumarol] | -0.27 | 0.53 | – | – | – |
| Nc1nc2c(ncn2COCCO)c(=O)[nH]1 [aciclovir] | -1.04 | 0.09 | – | 0.99 | PB [4, 7]: 0.21 |
| Cc1nnc2n1-c1ccc(Cl)cc1C(c1ccccc1)=NC2 [alprazolam] | 0.50 | 3.14 | – | – | PB [4, 7]: 0.8 |
| CCCCc1oc2ccccc2c1C(=O)c1cc(I)c(OCCN(CC)CC)c(I)c1 [amiodarone] | – | – | – | 0.33 | – |
| CCOC(=O)C1=C(COCCN)NC(C)=C(C(=O)OC)C1c1ccccc1Cl (stereo not drawn) [amlodipine] | 2.00 | 98.90 | – | 0.61 | – |
| CC(C)c1c(C(=O)Nc2ccccc2)c(-c2ccccc2)c(-c2ccc(F)cc2)n1CC[C@@H](O)C[C@@H](O)CC(=O)O [atorvastatin] | – | – | – | 0.80 | – |
| Cn1c(=O)c2c(ncn2C)n(C)c1=O [caffeine] | -0.75 | 0.18 | 0.82 | – | – |
| C[C@H](CS)C(=O)N1CCC[C@H]1C(=O)O [captopril] | -2.19 | 0.01 | 0.77 | – | – |
| CCN(CC)CCCC(C)Nc1ccnc2cc(Cl)ccc12 (stereo not drawn) [chloroquine] | – | – | – | – | PB [4, 8]: 0.55; log kIAM [2]: 0.49 |
| O=C(O)c1cn(C2CC2)c2cc(N3CCNCC3)c(F)cc2c1=O [ciprofloxacin] | – | – | 0.11 | 0.38 | – |
| CN(C)CCCC1(c2ccc(F)cc2)OCc2cc(C#N)ccc21 (stereo not drawn) [citalopram] | – | – | – | – | PB [4, 8]: 0.80; kIAM [2]: 3.14; log kIAM [2]: 0.50 |
| CN(C)CCCN1c2ccccc2CCc2ccc(Cl)cc21 [clomipramine] | – | – | – | – | kIAM [2]: 3.05; log kIAM [2]: 0.48 |
| COc1cc2c(c(OC)c1OC)-c1ccc(OC)c(=O)cc1[C@@H](NC(C)=O)CC2 [colchicine] | – | – | – | – | PB [4, 8]: 0.39 |
| Clc1ccc2c(c1)CCc1cccnc1C2=C1CCNCC1 [desloratidine] | 1.70 | 50.45 | – | – | – |
| C[C@H]1O[C@@H](O[C@H]2[C@@H](O)C[C@H](O[C@H]3[C@@H](O)C[C@H](O[C@H]4CC[C@@]5(C)[C@H](CC[C@@H]6[C@@H]5C[C@@H](O)[C@]5(C)[C@@H](C7=CC(=O)OC7)CC[C@]65O)C4)O[C@@H]3C)O[C@@H]2C)C[C@H](O)[C@@H]1O [digoxin] | 0.57 | 3.69 | – | – | – |
| COc1cc2nc(N3CCN(C(=O)C4COc5ccccc5O4)CC3)nc(N)c2cc1OC (stereo not drawn) [doxazosin] | -0.66 | 0.22 | – | 0.75 | – |
| CN(C)CCC[C@@]1(c2ccc(F)cc2)OCc2cc(C#N)ccc21 [escitalopram] | 1.51 | 32.08 | 0.42 | 0.55 | PB [4, 7]: 0.56 |
| CC(C)(C(=O)O)c1ccc(C(O)CCCN2CCC(C(O)(c3ccccc3)c3ccccc3)CC2)cc1 (stereo not drawn) [fexofenadine] | – | – | 0.61 | 0.85 | – |
| CNCCC(Oc1ccc(C(F)(F)F)cc1)c1ccccc1 (stereo not drawn) [fluoxetine] | 1.82 | 66.64 | 0.68 | 0.54 | PB [4, 7]: 0.945 |
| COCCCC/C(=N\OCCN)c1ccc(C(F)(F)F)cc1 [fluvoxamine] | – | – | – | – | CNP (Rf value from the non-impregnated NP plate, control) [3]: 0.34 |
| NS(=O)(=O)c1cc2c(cc1Cl)NCNS2(=O)=O [hydrochlorotiazide] | – | – | – | – | kIAM [2]: 2.01; log kIAM [2]: 0.30 |
| CC(C)Cc1ccc(C(C)C(=O)O)cc1 (stereo not drawn) [ibuprofen] | -0.07 | 0.86 | – | – | – |

| Molecule | log k IAM [2] | k IAM [2] | CNP (Rf, control NP plate) [3] | CRP (Rf, control RP plate) [5] | also measured |
| --- | --- | --- | --- | --- | --- |
| CC(C(=O)O)c1cccc(C(=O)c2ccccc2)c1 (stereo not drawn) [ketoprofen] | -0.71 | 0.20 | – | – | – |
| O=C(O)COCCN1CCN([C@H](c2ccccc2)c2ccc(Cl)cc2)CC1 [levocetrizine] | 0.58 | 3.82 | – | – | – |
| C[C@H]1COc2c(N3CCN(C)CC3)c(F)cc3c(=O)c(C(=O)O)cn1c23 [levofloxacin] | -0.04 | 0.90 | 0.17 | 0.27 | PB [4, 7]: 0.31 |
| Cc1cnc(NC(=O)C2=C(O)c3ccccc3S(=O)(=O)N2C)s1 [meloxicam] | -0.31 | 0.49 | – | – | – |
| Nc1cc(N2CCCCC2)nc(N)[n+]1[O-] [minoxidil] | – | – | – | – | PB [4, 8]: 0.00; kIAM [2]: 1.96; log kIAM [2]: 0.29; CNP (Rf value from the non-impregnated NP plate, control) [3]: 0.43 |
| CC(C)(O)c1ccccc1CC[C@@H](SCC1(CC(=O)O)CC1)c1cccc(/C=C/c2ccc3ccc(Cl)cc3n2)c1 [montelukast] | 2.00 | 99.10 | 0.95 | 0.70 | – |
| COc1ccc2cc([C@H](C)C(=O)O)ccc2c1 [naproxen] | – | – | 0.92 | 0.88 | – |
| CC1COc2c(N3CCN(C)CC3)c(F)cc3c(=O)c(C(=O)O)cn1c23 (stereo not drawn) [ofloxacin] | – | – | – | – | PB [4, 8]: 0.32; kIAM [2]: 3.07; log kIAM [2]: 0.49; CNP (Rf value from the non-impregnated NP plate, control) [3]: 0.24 |
| O=C1Nc2ccc(Cl)cc2C(c2ccccc2)=NC1O (stereo not drawn) [oxazepam] | 0.68 | 4.78 | – | – | – |
| CCN(CC)CC#CCOC(=O)C(O)(c1ccccc1)C1CCCCC1 (stereo not drawn) [oxybutinin] | 1.70 | 49.68 | 0.68 | 0.29 | – |
| CCCNCC(O)COc1ccccc1C(=O)CCc1ccccc1 (stereo not drawn) [propafenone] | – | – | 0.57 | 0.56 | – |
| CC(C)NCC(O)COc1cccc2ccccc12 (stereo not drawn) [propranolol] | 1.45 | 28.09 | 0.54 | – | NP (Rf, BSA-impregnated NP plate) ([6]; Table S3, NP plate impregnated with 2 mg/mL BSA, pH 7.4 mobile phase): 0.50 |
| CCCc1cc(=O)[nH]c(=S)[nH]1 [propylthiouracil] | – | – | – | – | PB [4, 8]: 0.82; kIAM [2]: 1.51; log kIAM [2]: 0.18 |
| C=C[C@H]1C[N@@]2CC[C@H]1C[C@H]2[C@H](O)c1ccnc2ccc(OC)cc12 [quinine] | – | – | – | – | kIAM [2]: 3.06; log kIAM [2]: 0.49 |
| CCC(C)(C)C(=O)O[C@H]1C[C@@H](C)C=C2C=C[C@H](C)[C@H](CC[C@@H]3C[C@@H](O)CC(=O)O3)[C@H]21 [simvastatin] | – | – | 0.19 | 0.66 | – |
| CCN1CCCC1CNC(=O)c1cc(S(N)(=O)=O)ccc1OC (stereo not drawn) [sulpiride] | 0.22 | 1.66 | 0.27 | 0.85 | PB [4, 7]: 0.4 |
| CN1C(=O)C(O)N=C(c2ccccc2)c2cc(Cl)ccc21 (stereo not drawn) [temazepam] | 0.83 | 6.74 | – | – | – |
| COc1cccc(C2(O)CCCCC2CN(C)C)c1 (stereo not drawn) [tramadol] | – | – | – | – | PB [4, 8]: 0.20 |
| COc1cc(Cc2cnc(N)nc2N)cc(OC)c1OC [trimethoprim] | – | – | – | – | PB [4, 8]: 0.44; CNP (Rf value from the non-impregnated NP plate, control) [3]: 0.57; NP (Rf value from the NP plate impregnated with 2 mg/mL BSA solution) ([6]; Table S8, external group): 0.59 |
| CCCCC(=O)N(Cc1ccc(-c2ccccc2-c2nnn[nH]2)cc1)[C@H](C(=O)O)C(C)C [valsartan] | -1.10 | 0.08 | 0.89 | 0.97 | PB [4, 7]: 0.955 |
| CC(=O)CC(c1ccccc1)c1c(O)c2ccccc2oc1=O (stereo not drawn) [warfarin] | – | – | – | – | kIAM [2]: 2.76; log kIAM [2]: 0.44 |
| gentamycin | – | – | – | – | kIAM [2]: 4.25; log kIAM [2]: 0.63; CNP (Rf value from the non-impregnated NP plate, control) [3]: 0.96 |
